Laboratory results: patent US4596789A, “Proline derivatives” (ICI Americas Inc., priority 1983, dated 1986)
Starred links: 1 amine or outer side, 2 acyl side, 3 side chain; linkers in the order of their positions; H or OH if unused. Non-standard residues stand in square brackets, D forms with d. Residues, ends and D or L forms follow the SMILES beside them. *: point of attachment. Suc = O=C(CCC(=O)[*:2])[*:1]; MeOSuc = COC(=O)CCC(=O)*; Cbz = O=C(OCc1ccccc1)*; Boc = CC(C)(C)OC(=O)*; CO = O=C([*:1])[*:2]

Experiments:
[1] = target: T1, human leukocyte elastase (HLE) (Homo sapiens, UniProt P08246); assay: Inhibition of human leukocyte elastase acting on a peptide p-nitroanilide substrate, Ki from Dixon plot; type: biochemical; conditions: room temperature; 16.6% (v/v) DMSO, pH 8.1; substrate methoxysuccinyl-alanyl-alanylprolyl-valine-p-nitroanilide 1.6×10^-4 molar; read-out: Ki, dissociation constant of the inhibitor-HLE complex
T1 construct: The HLE enzyme used in these studies may be obtained according to B. R. Viscarello et al. in Preparative Biochemistry, Vol. 13 (1983); from tissue; The enzyme was isolated by a cited preparative procedure. b8 says HLE is released from the granules of polymorphonuclear leukocytes
T1 sequence (P08246 30-267): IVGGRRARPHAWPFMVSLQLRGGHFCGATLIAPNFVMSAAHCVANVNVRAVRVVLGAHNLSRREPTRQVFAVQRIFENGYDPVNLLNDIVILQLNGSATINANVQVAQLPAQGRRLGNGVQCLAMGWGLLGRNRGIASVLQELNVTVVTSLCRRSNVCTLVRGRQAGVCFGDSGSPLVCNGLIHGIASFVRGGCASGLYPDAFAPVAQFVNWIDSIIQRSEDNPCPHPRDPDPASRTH
Method: The potency of compounds of the invention to act as elastase inhibitors was determined by the ability of a compound of the invention to inhibit the action of human leukocyte elastase (HLE) on a low molecular weight peptide substrate. The potency of an inhibitor is evaluated by obtaining a kinetic determination of the dissociation constant, Ki, of the complex formed from the interaction of the inhibitor with HLE. The substrate used was the anilide methoxysuccinyl-alanyl-alanylprolyl-valine-p-nitroanilide as described by K. Nakajima et al. in The Journal of Biological Chemistry, Vol. 254, pages 4027-4032 (1979) and by T. Teshima et al. in The Journal of Biological Chemistry, Vol. 257, No. 9, pages 5085-5091 (1982). The HLE enzyme used in these studies may be obtained according to B. R. Viscarello et al. in Preparative Biochemistry, Vol. 13 (1983).
From HLE enzyme obtained as described in the Viscarello et al reference, a standard rate of production of p-nitroaniline was measured at room temperature spectrophotometrically in the visible spectrum at 410 nanometers, with automatic data acquisition in a Cary 210-Apple III Plus microcomputer system obtained from Varian Associates. Reactions were initiated by injection of a small aliquot (50 or 100 microliters) of a stock solution of the anilide substrate in DMSO into a curvette containing buffer and HLE enzyme. The amount of HLE used is sufficient to produce an initial velocity of about 0.01 OD (optical density) per minute. Final volume was 3.0 ml. Initial velocities of production of p-nitroaniline were determined from linear regression analysis of at least 30 data points (OD410 vs. time) taken during the initial, linear, portion of the reaction. The initial velocity for the HLE sample without any inhibitor being present was obtained and used as a standard for the subsequent determination of the initial velocity of the reaction in the presence of an inhibitor to be tested. The Ki value of a particular inhibitor was determined as follows. To a 3 ml cuvette were added […] of a buffer (9 millimolar sodium phosphate, 10% DMSO (v/v), pH=7.9), 100 microliters of inhibitor solution in DMSO and 20 microliters of HLE stock solution at the same concentration used in the control. After the inhibitor and enzyme solution had equilibrated, the reaction was initiated by the addition of 100 microliters of the stock substrate solution in DMSO. The final solution was 16.6% (v/v) in DMSO, with pH 8.1. The substrate was at an initial concentration of 1.6×10^-4 molar. […]

[2] = Pharmacokinetics: serum level of inhibitor after subcutaneous injection; type: in vivo, Male Syrian hamsters; conditions: serum inhibitor concentration vs time
Method: Pharmacokinetics: Male Syrian hamsters (80 to 120) g) are injected subcutaneously with the test compound. Prior to injection and at varying time periods thereafter they are lightly anesthetized with ether and blood samples of approximately 0.2 ml each are withdrawn by cardiac puncture. The blood is expressed into 2 ml centrifuge tubes and allowed to clot for one hr. The sample is then centrifuged and the serum removed. Blood samples are taken before (time 0) and 15, 30, 60, 90 and 120 minutes after subcutaneous administration of the test compound in an appropriate vehicle.
Drug levels are determined by first inactivating endogenous elastase inhibitors by incubation of 50 microliters of serum with an equal volume of buffer containing 5 mg/ml bovine pancreatic trypsin for 5 min. […] After an additional 2 min. incubation, the reaction is started by the addition of substrate (100 microliters) (MeOSuc-Ala-Ala-Pro-Val-pNA, 1.6 mM) and the reaction monitored spectrophotometrically at a wavelength of 410 nm. Serum concentrations of the test compounds are determined by the following equation: [formula] where [I], [E] and [S] are the assay concentrations of inhibitor enzyme and substrate respectively, Ki is the inhibition constant of the inhibitor being assayed, Km is the Michaelis constant of the substrate, Vo is the control uninhibited reaction velocity, and Vi is the inhibited reaction velocity. […]

human leukocyte elastase = target: T2, human leukocyte elastase (Homo sapiens, UniProt P08246); conditions: reported by Szabo et al. 1982, cited from earlier work
T2 sequence (P08246 30-267): T1 sequence (P08246 30-267)

For `COC(=O)[C@H](CC(C)C)NC(=O)N[C@H](C(=O)N1CCC[C@H]1C(=O)N[C@H](C=O)C(C)C)C(C)C` [Example 32g, N-[1(S)-Carbomethoxy-3-methylbutyl]carbamoyl-L-valyl-L-prolyl-L-valinal] ({OMe-Leu-CO}-Val-Pro-Val-aldehyde), the Ki [1] was 94 nM.

Work on `COC(=O)CCC(=O)N[C@@H](CCCCNC(=O)OCc1ccccc1)C(=O)N[C@H](C(=O)N1CCC[C@H]1C(=O)N[C@H](C=O)C(C)C)C(C)C` [Example 8b, N-alpha-Methoxysuccinyl-N-epsilon-benzyloxycarbonyl-L-lysyl-L-valyl-L-prol yl-L-valinal] (MeOSuc-K(Cbz)VPV-aldehyde) yielded a Ki [1] of 6 nM.

Compound `CC(C)[C@H](NC(=O)[C@H](CCCCNC(=O)OCc1ccccc1)NC(=O)OC(C)(C)C)C(=O)N1CCC[C@H]1C(=O)N[C@H](C=O)C(C)C` [Example 1f, N-alpha-t-Butyloxycarbonyl-N-epsilon-benzyloxycarbonyl-L-lysyl-L-valyl-L-p rolyl-L-valinal] (Boc-K(Cbz)VPV-aldehyde) has a Ki [1] of 15 nM.

In the case of `CC(C)[C@H](NC(=O)[C@H](CCCCNC(=O)OCc1ccccc1)NC(=O)CCC(=O)O)C(=O)N1CCC[C@H]1C(=O)N[C@H](C=O)C(C)C` [Example 5b, N-alpha-Succinyl-N-epsilon-benzyloxycarbonyl-L-lysyl-L-valyl-L-prolyl-L-va linal] (Suc-K(Cbz)VPV-aldehyde), the “activity in animals as measured by the pharmacokinetics test” value [2] is reported as “good activity in animals” and the Ki [1] is reported as 30 nM.

For `CC(C)[C@@H](C=O)NC(=O)[C@@H]1CCCN1C(=O)[C@@H](Cc1ccccc1)NC(=O)CCC(=O)O` [N-succinyl-D-phenylalanyl-L-prolyl-L-valinal] (Suc-[dF]-Pro-Val-aldehyde), the “stronger inhibition than the other four aldehydes” value (human leukocyte elastase) is given as 10-100 times and the Ki (human leukocyte elastase; read-out: Ki (HLE inhibition)) is given as 40000 nM.
